# Reference: US20240374763A1, “DIAGNOSIS AND MONITORING USING EXTRADOMAIN-B FIBRONECTIN TARGETED PROBES” (Case Western Reserve University, priority 2020, published 2024)
# No end group written: not given here.
# Tests used:
# Type in all cases: in vivo, mice
# [1] = test system: CAL27 tumors; test: MRMI of OSCC flank xenografts, CAL27; conditions: MT218 0.04 mmol/kg
# Experimental: Animal experiments were performed under an animal protocol approved by the Institutional Animal Care and Use Committee (IACUC) at Case Western Reserve University (CWRU, Cleveland, OH, USA). Female 4-week-old athymic nude mice purchased from the Jackson Laboratory (Bar Harbor, ME, USA) were housed in the Animal Core Facility at CWRU. Anesthetized mice were subcutaneously inoculated in the right flank with 4×10^6 GFP/luciferase-expressing OSCC cells (n=5 per cell line) in 100 μL of a 1:1 mixture of Matrigel HC (Corning) and DPBS. Tumor size was monitored with caliper measurements. After 4 weeks of growth, tumors were sufficiently large for MRI experiments.
# MRI experiments were performed with a 3T MRS-3000 system (MR Solutions, Surrey, UK). Tumor-bearing mice were imaged before and at 10, 20, and 30 minutes post-injection of the targeted contrast agent, MT218 (Molecular Theranostics, LLC, Cleveland, OH, USA), at a dose of 0.04 mmol/kg using a T1-weighted fast spin-echo axial sequence with respiratory gating (TR=305 ms, TE=11 ms, FOV=40×40 mm, slice thickness=1 mm, number of slices=15, Nav=2, matrix=256×248). […]
# Images were exported in DICOM format and analyzed using FIJI. Contrast-to-noise ratio (CNR) for each time point was calculated as the difference between the mean tumor intensity and the mean muscle intensity, divided by the standard deviation of noise.
# [2] = test system: BxPC3-GFP-Luc intrapancreatic tumors; test: MRMI of BxPC3-GFP-Luc intrapancreatic tumors
# Experimental: For flank xenograft models, 4×10^6 Capan-1 cells suspended in 100 μL of a 6 mg/mL Matrigel (Corning, Corning, NY) solution was injected subcutaneously into the flank of eight-week-old female nu/nu mice. The tumor bearing mice were imaged after tumor volumes exceeded 300 mm^3. For orthotopic intrapancreatic models, the pancreas of four-week-old female nu/nu mice were surgically exposed and 1×10^6 BxPC3-GFP-Luc or PANC-1-GFP-Luc cells suspended in 100 μL of an Matrigel solution (6 mg/mL) was injected into the pancreatic tissue. Prior to imaging, growth of tumor was verified by bioluminescence imaging with intraperitoneal injection of d-luciferin on IVIS Spectrum system (Perkin Elmer, Waltham, MA).
# Mice bearing intrapancreatic tumors were anesthetized and a tail vein catheter was inserted. Image acquisition was performed on a MR Solutions 3T MRS 3000 scanner with a mouse radiofrequency coil. Axial images were obtained using a Fast Spin Echo (FSE) MRI sequence (305 ms TR, 11 ms TE, 90° F.A, 4 cm×4 cm FOV, 1 mm slice thickness, 10 slices, echo train length=4, echo spacing=11 ms, 4 averages, 256×256 matrix, […] cm/pixel resolution) with respiratory gating. Images were acquired before contrast and at different time points after contrast injection at a dose of 0.1 mmol/kg (100 μL). For competitive binding experiments, a 5:1 molar ratio of free ZD2 peptide to MT218 was injected in mice bearing intrapancreatic BxPC3 tumor xenografts (n=3) at a dose of 0.1 mmol MT218/kg (100 μL). Images obtained on the MR Solutions 3T scanner were normalized using the Surscalereader.exe (MR Solutions, Guildford, UK) program supplied.
# Image files were exported and analyzed in Horus software. ROIs were drawn in the tumor, liver, kidney, and muscle. Muscle ROIs were taken from muscle, with other structures (liver, kidney, tumor) identified after comparison with published images and comparison with anatomical landmarks or bioluminescent imaging. Size of ROIs drawn for image analysis are summarized in Supplemental Table S1. The contrast-to-noise ratio of the tumor (CNR) was calculated using the following equation, where σ_noise is the standard deviation of intensities from an ROI drawn outside of the mouse body:
# Image contrast was reported as fold enhancement of contrast to noise ratio of postcontrast images over precontrast images using Fold Enhancement=CNRpost/CNRpre. Statistical analysis of CNR was performed in Minitab Express (Minitab Inc, State College, PA). One-way ANOVA with Fisher Individual Tests for Differences of Means post-hoc testing was performed to determine statistical significance between greater than two means (p<0.05). Student's T test was used to determine statistical significance between two means (p<0.05).
# [3] = test system: DLD-1 tumors; test: MRMI of EDB-FN with MT218, DLD-1 xenografts; conditions: 40 μmol/kg MT218, 25 min post-injection
# Experimental: Nude athymic mice (6-week-old nu/nu females) were purchased from The Jackson Laboratory (Bar Harbor, […]) and housed in the Animal Facility at CWRU. All the animal experiments were performed according to the protocol approved by the IACUC of CWRU. For assessment of drug resistance, 2 drug-resistant and 2 non-drug-resistant models were set up. About 3-4×10^6 DLD-1, RKO, DLD1-DR, and RKO-DR cells suspended in Matrigel-PBS mixture (1:1) were subcutaneously injected in the left flanks of nude mice (100 μL per mouse, 5 mice per group×4 models=20 mice). After 9 days when the tumors reached 100-200 mm3, MRMI was performed on the 4 xenograft models with 40 μmol/kg dose of MT218. The animals were then euthanized, and the tumors were harvested for post-mortem histology and IHC.
# MT218 was synthesized as previously described. Ayat, N. R., et al., ACS Med Chem Lett, 2018. 9(7): p. 730-735. Briefly, click reaction between alkynyl-ZD2 and N3-Gd(HP-DO3A) was performed in the presence of CuSO4 and ascorbate at room temperature, followed by FLASH chromatography purification and validation of MT218 by MALDI-TOF mass spectrometry (m.w. 1443). […] Contrast-to-noise ratios (CNRs) were calculated as (mean tumor intensity—mean muscle intensity)/standard deviation of noise. […]
substance,measurement,setting,value
"ZD2-N3-Gd(HP-DO3A) (TVRTSAD; also: conjugated to Gd(HP-DO3A) by click reaction of alkynyl-ZD2 with N3-Gd(HP-DO3A), residue of attachment not given here, Gd complex) [MT218, EDB-FN-targeted MRI contrast agent; ZD2 peptide conjugated to the clinical macrocyclic agent Gd(HP-DO3A)]",average maximum enhancement (CNR),[1],1.80±0.17
same,tumor CNR increase,"[2]; 0.1 mmol/kg, 10 min post-injection",5.3 fold
same,CNR increase with co-injection of excess free ZD2 peptide,"[2]; 5:1 molar ratio of free ZD2 peptide to MT218, 0.1 mmol MT218/kg",approximately 2.5 fold
same,CNR compared to the clinical agent Gd(HP-DO3A),[2]; BxPC3-GFP-Luc,212 % CNR of control
same,CNR increase with MT218 without the free peptide,"[2]; competitive binding experiment, 0.1 mmol/kg",ca. 4.5 fold
same,increase in CNRs over the pre-contrast,[3],1.53 fold
